One test has as its system NHBE cells. Description: Apoptosis by TUNEL and DNA fragmentation, NHBE cells. The test is classed as cell-based, human. The procedure:
(§1) NHBE, premalignant (1799 and 1198), and malignant (1170-1) HBE (2×10^6) cells were exposed to various doses of deguelin or to DMSO (0.1%) for 3 days. Apoptosis was assessed by morphology, by a flow cytometry-based, modified terminal deoxynucleotidyl transferase dUTP nick end labeling (TUNEL) assay, and by the detection of fragmented DNA. For morphology, live cells were observed by light microscopy using a ×100 objective. For TUNEL analysis, both adherent and nonadherent cells were harvested and pooled, fixed with 1% paraformaldehyde and 70% ethanol, and processed using the APO-BrdU staining kit (Phoenix Flow Systems, San Diego, Calif.), a modified TUNEL assay, as described (Lee et al., 2002). Cells treated with DMSO were used to gate the control nonapoptotic populations and as a reference for cells treated with deguelin. An internal control (HL-60 cells treated with camptothecin to induce apoptosis) provided in the apoptosis detection kit was also used to ensure that the TUNEL reaction was occurring during the staining procedure. For the detection of fragmented nucleosomal DNA, cells were processed using the TACS apoptotic DNA laddering kit (Trevigen Inc., Gaithersburg, Md.), according to the manufacturer's recommended protocol.

The next test concerns 1799 cells. The test can be described thus: Apoptosis by APO-BrdU (modified TUNEL) flow cytometry, 1799 cells. The test is classed as cell-based, human. The protocol: as §1
To determine whether deguelin-induced antiproliferative effects on premalignant HBE cells were mediated through the inhibition of the PI3K/Akt pathway, 2×10^5 1799 cells/well or 1×10 ^6 squamous HBE cells/well in six-well plates were infected with 5×10 ^3 particles/cell of a control virus (Ad5CMV) or with 1×10^3 or 5×10^3 particles/cell of Ad5CMV-MyrAkt-HA, an adenoviral vector that expresses a constitutively active Akt. (MyrAkt) in KSFM. After 1 day of infection, cells were treated with 10^−7M or 10^−6M deguelin, 2×10^−6 M or 4×10^−6M N-(4-hydroxyphenyl)retinamide (4-HPR), or 0.1% DMSO as a control and then incubated for 1 or 2 days. Apoptosis was analyzed using the APO-BrdU staining kit for TUNEL, Western blot analyses for caspase-3, and the cleavage of PARP.
On the technique in general: In flow cytometry, cells or beads pass a laser one at a time.

Turning to `COc1cc2c(cc1OC)[C@@H]1C(=O)c3ccc4c(c3O[C@@H]1CO2)C=CC(C)(C)O4` [deguelin, Deguelin], in the test with NHBE cells, the “apoptosis (TUNEL, DNA fragmentation)” value is given as “neither a TUNEL-positive cell population nor fragmented DNA”. Besides, the cells undergoing apoptosis entry with 1799 cells (10^−7 M, 2 days, 1799 cells infected with Ad5CMV-MyrAkt-HA) is “less than 10%”; in the test with 1799 cells (10^−7 M, 2 days, 1799 cells uninfected or infected with control adenovirus), “approximately 40%”; in the test on 1799 cells (10^−7 M, 3 days), 92.2%; in the test with 1799 cells (10^−8 M, 3 days) it was 68.5%; in the test on 1799 cells (10^−9 M, 3 days), “approximately 3.3%”.

The values above are taken from US20040005294A1, “IGFBP-3 in the diagnosis and treatment of cancer” (priority 2002, published 2004).
